Assays:
[1] = target: T1, human CB-1 cannabinoid receptor (Homo sapiens, UniProt P21554); assay: CB1 receptor radioligand binding assay, [3H]CP 55940, transfected CHO cell membranes; settings: 0.5 nM [3H]CP 55940, CHO membrane homogenates, 120 min at 37° C.
T1 construct: expressed in transfected cells; host or cells: CHO cells
Procedure: Nonspecific binding is determined in the presence of 10 μM WIN 55212-2.
Following incubation, the samples are filtered rapidly under vacuum through glass fiber filters (GF/B, Packard) presoaked with 0.3% PEI and rinsed several times with an ice-cold buffer containing 50 mM Tris-HCl (pH 7.4) and 0.5% BSA using a 96-sample cell harvester (Unifilter, Packard). The filters are dried then counted for radioactivity in a scintillation counter (Topcount, Packard) using a scintillation cocktail (Microscint 0, Packard).
The standard reference compound is CP 55940 which is tested in each experiment at several concentrations to obtain a competition curve from which its IC50 is calculated.

[2] = target: T2, human adenosine A1 receptor (Homo sapiens, UniProt P30542); assay: Inhibition binding assay, human adenosine A1 receptor membranes, [3H]DPCPX; settings: 1 nM [3H]DPCPX, 25° C., 1 h; IC50 converted to Ki with Cheng-Prusoff; read-out: A1 pKi (converted)
T2 construct: expressed in transfected cells; host or cells: HEK293 cells infected with BacMam (the same paragraph also labels the preparation CHO-hA1)
T2 sequence (P30542 1-326): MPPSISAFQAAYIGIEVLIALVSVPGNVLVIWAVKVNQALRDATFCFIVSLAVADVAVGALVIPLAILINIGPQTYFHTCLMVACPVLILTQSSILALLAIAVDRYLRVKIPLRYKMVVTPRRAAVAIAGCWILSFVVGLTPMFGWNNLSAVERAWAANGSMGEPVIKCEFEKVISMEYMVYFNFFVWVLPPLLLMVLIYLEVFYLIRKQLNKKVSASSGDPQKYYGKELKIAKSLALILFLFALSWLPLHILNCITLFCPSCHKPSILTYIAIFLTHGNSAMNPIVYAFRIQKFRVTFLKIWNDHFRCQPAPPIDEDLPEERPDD
Procedure, shortened: (§1)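 Membranes from BacMam-infected HEK293 cells (0.2 μg A2A, 1.4 μg A1) incubated 1 h at 25° C with test compound and 1 nM [3H]ZM241385 (A2A; 50 mM Tris-HCl pH 7.4) or [3H]DPCPX (A1; plus 100 mM NaCl, 10 mM MgCl2). Nonspecific: 1 μM CGS15943 or DPCPX. Filtration, scintillation; IC50 converted to Ki via Cheng-Prusoff.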

[3] = target: T3, human CB1 receptor (Homo sapiens, UniProt P21554); assay: CB1 receptor antagonism, agonist-induced cAMP modulation (HTRF) in transfected CHO cells; assay type: cell-based; settings: read-out: Antag IC50
T3 construct: expressed in transfected cells; host or cells: CHO cells
T3 sequence (P21554 whole entry): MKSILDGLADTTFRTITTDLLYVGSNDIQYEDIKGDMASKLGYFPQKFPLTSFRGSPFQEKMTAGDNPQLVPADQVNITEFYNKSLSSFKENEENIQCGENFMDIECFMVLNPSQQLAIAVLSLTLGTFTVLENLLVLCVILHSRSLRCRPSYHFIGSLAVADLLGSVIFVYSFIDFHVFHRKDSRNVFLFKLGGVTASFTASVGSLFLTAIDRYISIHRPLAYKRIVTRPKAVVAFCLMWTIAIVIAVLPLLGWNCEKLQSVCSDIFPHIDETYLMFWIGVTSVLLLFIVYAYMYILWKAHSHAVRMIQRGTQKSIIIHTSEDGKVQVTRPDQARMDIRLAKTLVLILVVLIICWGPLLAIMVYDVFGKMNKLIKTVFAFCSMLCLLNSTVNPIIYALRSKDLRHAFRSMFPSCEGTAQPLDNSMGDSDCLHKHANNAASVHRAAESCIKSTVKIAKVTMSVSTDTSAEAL
Procedure: Receptor antagonism: Evaluation of the antagonist activity of compounds at the human CB1 receptor expressed in transfected CHO cells, determined by measuring their effects on agonist-induced cAMP modulation using the HTRF detection method.
Thereafter, the reference agonist CP 55940 and the adenylyl cyclase activator NKH 477 are added at respective final concentrations of 3 nM and 3 μM.
For basal control measurements, CP 55940 is omitted from the wells containing 3 μM AM 281.
Following 20 min incubation at 37° C., the cells are lysed and the fluorescence acceptor (D2-labeled cAMP) and fluorescence donor (anti-cAMP antibody labeled with europium cryptate) are added.
After 60 min at room temperature, the fluorescence transfer is measured at λex=337 nm and λem=620 and 665 nm using a microplate reader (Rubystar, BMG). The cAMP concentration is determined by dividing the signal measured at 665 nm by that measured at 620 nm (ratio).
The standard reference antagonist is AM 281, which is tested in each experiment at several concentrations to generate a concentration-response curve from which its IC50 value is calculated.

[4] = target: T4, human adenosine A2A receptor (Homo sapiens, UniProt P29274); assay: Inhibition binding assay, human adenosine A2A receptor membranes, [3H]ZM241385; settings: 1 nM [3H]ZM241385, HEK293-hA2A membranes, 25° C., 1 h; IC50 converted to Ki with Cheng-Prusoff; read-out: A2A pKi (converted)
T4 construct: expressed in transfected cells; host or cells: HEK293 cells infected with BacMam
T4 sequence (P29274 whole entry): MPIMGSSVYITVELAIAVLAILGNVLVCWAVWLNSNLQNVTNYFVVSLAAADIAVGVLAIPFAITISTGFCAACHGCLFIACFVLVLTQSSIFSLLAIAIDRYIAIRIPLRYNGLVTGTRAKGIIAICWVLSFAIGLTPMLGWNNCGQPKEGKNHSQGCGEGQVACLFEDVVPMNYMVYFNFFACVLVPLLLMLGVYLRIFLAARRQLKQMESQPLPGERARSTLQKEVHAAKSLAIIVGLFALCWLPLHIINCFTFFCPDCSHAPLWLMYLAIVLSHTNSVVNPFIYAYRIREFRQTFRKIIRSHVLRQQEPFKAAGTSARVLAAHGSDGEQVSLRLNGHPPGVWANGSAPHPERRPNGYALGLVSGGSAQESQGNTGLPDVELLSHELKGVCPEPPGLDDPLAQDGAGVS
Procedure, shortened: as §1

T1 sequence (P21554 whole entry): as the sequence (P21554 whole entry) above

Row | Compound | Ki [1] [nM] | Ki [2] [nM] | IC50 [3] [nM] | Ki [4] [nM]
1 | COc1ncc(F)cc1Cn1nc2c(-c3cc(C)nc(C)c3)c(-c3ccccc3)nc(N)n2c1=O [Example 1-40, 5-amino-8-(2,6-dimethyl-4-pyridyl)-2-[(5-fluoro-2-methoxy-3-pyridyl)methyl]-7-phenyl-[1,2,4]triazolo[4,3-c]pyrimidin-3-one] | 24100 | 39.8 | 7400 | 0.794
2 | Nc1nc(-c2ccccc2)c(-c2cc(CO)nc(C(F)(F)F)c2)c2nn(CCC(F)(F)F)c(=O)n12 [Example 2-53, 5-amino-8-[2-(hydroxymethyl)-6-(trifluoromethyl)-4-pyridyl]-7-phenyl-2-(3,3,3-trifluoropropyl)-[1,2,4]triazolo[4,3-c]pyrimidin-3-one] | 37700 | 501 | > 100000 | 1.26
3 | Cc1cc(-c2c(-c3ccccc3)nc(N)n3c(=O)n(CC45C6C7C4C4C5C6C74F)nc23)cc(CO)n1 (stereo not shown) [Example 2-60, 5-amino-2-[(4-fluorocuban-1-yl)methyl]-8-[2-(hydroxymethyl)-6-methyl-4-pyridyl]-7-phenyl-[1,2,4]triazolo[4,3-c]pyrimidin-3-one] | 14600 | 200 | 2400 | 7.94
4 | Cc1cc(-c2c(-c3ccccc3)nc(N)n3c(=O)n(C[C@@H]4COCCN4Cc4ccccc4)nc23)cc(C)n1 [Example 1-101, 5-amino-2-[[(3R)-4-benzylmorpholin-3-yl]methyl]-8-(2,6-dimethyl-4-pyridyl)-7-phenyl-[1,2,4]triazolo[4,3-c]pyrimidin-3-one] | 4000 | 10 | 2700 | 0.631
5 | Cc1cc(-c2c(-c3ccc(F)cn3)nc(N)n3c(=O)n(CCC(F)(F)F)nc23)cc(C)n1 [Example 2-40, 5-amino-8-(2,6-dimethyl-4-pyridyl)-7-(5-fluoro-2-pyridyl)-2-(3,3,3-trifluoropropyl)-[1,2,4]triazolo[4,3-c]pyrimidin-3-one] | 75700 | > 3160 | > 100000 | 39.8
6 | Cc1cc(-c2c(-c3ccccc3)nc(N)n3c(=O)n(C4CCCN(C(=O)OC(C)(C)C)C4)nc23)cc(C)n1 (stereo not shown) [Example 2-54, tert-butyl 3-[5-amino-8-(2,6-dimethyl-4-pyridyl)-3-oxo-7-phenyl-[1,2,4]triazolo[4,3-c]pyrimidin-2-yl]piperidine-1-carboxylate] | 8200 | 398 | 1100 | 6.31
7 | Cc1cc(-c2c(-c3ccccc3)nc(N)n3c(=O)n(CCC(F)(F)F)nc23)cc(CO)n1 [Example 2-51, 5-amino-8-[2-(hydroxymethyl)-6-methyl-4-pyridyl]-7-phenyl-2-(3,3,3-trifluoropropyl)-[1,2,4]triazolo[4,3-c]pyrimidin-3-one] | 85000 | 501 | > 100000 | 1.26
8 | COc1cc(-c2c(-c3ccccc3)nc(N)n3c(=O)n(Cc4ccc(Cl)cn4)nc23)cc(CO)n1 [Example 1-65, 5-amino-2-[(5-chloro-2-pyridyl)methyl]-8-[2-(hydroxymethyl)-6-methoxy-4-pyridyl]-7-phenyl-[1,2,4]triazolo[4,3-c]pyrimidin-3-one] | 19900 | 794 | 9300 | 0.794
9 | Cc1cc(-c2c(-c3ccccc3)nc(N)n3c(=O)n(Cc4ccc(F)cc4)nc23)cc(C)n1 [Example 1-1, 5-amino-8-(2,6-dimethyl-4-pyridyl)-2-[(4-fluorophenyl)methyl]-7-phenyl-[1,2,4]triazolo[4,3-c]pyrimidin-3-one] | 3600 | 31.6 | 1700 | 0.398
10 | Cc1cc(-c2c(-c3ccccc3)nc(N)n3c(=O)n(CCC(F)(F)F)nc23)cc(C)n1 [Example 2-6, 5-amino-8-(2,6-dimethyl-4-pyridyl)-7-phenyl-2-(3,3,3-trifluoropropyl)-[1,2,4]triazolo[4,3-c]pyrimidin-3-one] | 22000 | 501 | 26500 | 2
